US8178668B2, “2-aminopyridine kinase inhibitors” (OSI Pharmaceuticals, LLC, priority 2008, dated 2012)
Structures can show the parent of a compound that is named as a salt.

Assays:
RON (human) = RON (human) (Homo sapiens, UniProt Q04912); experiment: RON kinase AlphaScreen assay (Km of ATP); format: biochemical; settings: ATP at Km; at least duplicate experiments
Method in brief: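 Human RON phosphorylated biotinylated poly(Glu,Tyr) (200 ng/μL) at Km ATP in 50 mM HEPES pH 7.4, 12.5 mM MgCl2, 1% glycerol, 0.334 mM vanadate, 1% DMSO. Reaction ran 30 min at RT after enzyme addition. Product was detected by AlphaScreen with PT66 beads after 1 h.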

MET (human) = MET (human) (Homo sapiens, UniProt P08581); experiment: MET kinase AlphaScreen assay (Km of ATP); format: biochemical; settings: ATP at Km; at least duplicate experiments
Method in brief: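 Biotinylated poly(Glu,Tyr) (200 ng/μL) phosphorylated by MET with ATP at an enzyme-optimized level, in 50 mM HEPES pH 7.4 with Mg2+/Mn2+ and vanadate, 1% DMSO. Reaction runs 60 min at RT. PT66 AlphaScreen donor/acceptor beads are added and signal is read after 1 h.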

RON (human), sequence (Q04912 25-1400): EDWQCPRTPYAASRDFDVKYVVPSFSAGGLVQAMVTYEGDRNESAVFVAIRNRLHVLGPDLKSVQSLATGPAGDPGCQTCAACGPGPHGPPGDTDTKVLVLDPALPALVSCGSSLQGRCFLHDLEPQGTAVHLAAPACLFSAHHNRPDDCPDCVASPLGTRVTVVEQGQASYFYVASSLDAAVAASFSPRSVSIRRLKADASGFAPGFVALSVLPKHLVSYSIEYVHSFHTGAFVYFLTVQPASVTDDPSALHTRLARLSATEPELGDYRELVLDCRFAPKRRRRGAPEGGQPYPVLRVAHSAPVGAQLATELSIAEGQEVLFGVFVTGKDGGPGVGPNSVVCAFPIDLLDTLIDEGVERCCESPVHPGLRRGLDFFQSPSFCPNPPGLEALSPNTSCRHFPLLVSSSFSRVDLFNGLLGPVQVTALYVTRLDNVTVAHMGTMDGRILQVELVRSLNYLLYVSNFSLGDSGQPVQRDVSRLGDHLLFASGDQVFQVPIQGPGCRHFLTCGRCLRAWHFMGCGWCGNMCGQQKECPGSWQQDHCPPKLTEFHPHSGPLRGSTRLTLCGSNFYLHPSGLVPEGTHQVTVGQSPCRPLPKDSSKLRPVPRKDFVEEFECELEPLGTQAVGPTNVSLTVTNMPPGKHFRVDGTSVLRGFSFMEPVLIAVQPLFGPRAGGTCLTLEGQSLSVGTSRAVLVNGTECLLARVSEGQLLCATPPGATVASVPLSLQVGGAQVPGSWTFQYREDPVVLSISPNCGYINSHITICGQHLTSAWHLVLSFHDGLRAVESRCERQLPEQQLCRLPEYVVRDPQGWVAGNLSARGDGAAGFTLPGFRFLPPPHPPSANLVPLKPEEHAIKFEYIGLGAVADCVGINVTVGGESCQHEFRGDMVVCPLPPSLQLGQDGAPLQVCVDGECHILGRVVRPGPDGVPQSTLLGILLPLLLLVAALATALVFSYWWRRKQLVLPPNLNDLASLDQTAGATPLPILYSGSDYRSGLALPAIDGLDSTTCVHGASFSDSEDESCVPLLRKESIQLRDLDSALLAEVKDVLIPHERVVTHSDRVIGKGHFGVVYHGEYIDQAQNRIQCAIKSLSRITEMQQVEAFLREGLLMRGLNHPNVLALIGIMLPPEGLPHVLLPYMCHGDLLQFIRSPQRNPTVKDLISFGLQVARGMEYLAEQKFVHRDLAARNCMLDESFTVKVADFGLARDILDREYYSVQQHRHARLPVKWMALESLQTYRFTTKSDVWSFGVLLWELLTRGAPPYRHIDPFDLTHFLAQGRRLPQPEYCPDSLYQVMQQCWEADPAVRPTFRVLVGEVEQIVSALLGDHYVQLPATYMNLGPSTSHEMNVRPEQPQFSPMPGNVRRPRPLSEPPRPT
MET (human), sequence (P08581 25-1390): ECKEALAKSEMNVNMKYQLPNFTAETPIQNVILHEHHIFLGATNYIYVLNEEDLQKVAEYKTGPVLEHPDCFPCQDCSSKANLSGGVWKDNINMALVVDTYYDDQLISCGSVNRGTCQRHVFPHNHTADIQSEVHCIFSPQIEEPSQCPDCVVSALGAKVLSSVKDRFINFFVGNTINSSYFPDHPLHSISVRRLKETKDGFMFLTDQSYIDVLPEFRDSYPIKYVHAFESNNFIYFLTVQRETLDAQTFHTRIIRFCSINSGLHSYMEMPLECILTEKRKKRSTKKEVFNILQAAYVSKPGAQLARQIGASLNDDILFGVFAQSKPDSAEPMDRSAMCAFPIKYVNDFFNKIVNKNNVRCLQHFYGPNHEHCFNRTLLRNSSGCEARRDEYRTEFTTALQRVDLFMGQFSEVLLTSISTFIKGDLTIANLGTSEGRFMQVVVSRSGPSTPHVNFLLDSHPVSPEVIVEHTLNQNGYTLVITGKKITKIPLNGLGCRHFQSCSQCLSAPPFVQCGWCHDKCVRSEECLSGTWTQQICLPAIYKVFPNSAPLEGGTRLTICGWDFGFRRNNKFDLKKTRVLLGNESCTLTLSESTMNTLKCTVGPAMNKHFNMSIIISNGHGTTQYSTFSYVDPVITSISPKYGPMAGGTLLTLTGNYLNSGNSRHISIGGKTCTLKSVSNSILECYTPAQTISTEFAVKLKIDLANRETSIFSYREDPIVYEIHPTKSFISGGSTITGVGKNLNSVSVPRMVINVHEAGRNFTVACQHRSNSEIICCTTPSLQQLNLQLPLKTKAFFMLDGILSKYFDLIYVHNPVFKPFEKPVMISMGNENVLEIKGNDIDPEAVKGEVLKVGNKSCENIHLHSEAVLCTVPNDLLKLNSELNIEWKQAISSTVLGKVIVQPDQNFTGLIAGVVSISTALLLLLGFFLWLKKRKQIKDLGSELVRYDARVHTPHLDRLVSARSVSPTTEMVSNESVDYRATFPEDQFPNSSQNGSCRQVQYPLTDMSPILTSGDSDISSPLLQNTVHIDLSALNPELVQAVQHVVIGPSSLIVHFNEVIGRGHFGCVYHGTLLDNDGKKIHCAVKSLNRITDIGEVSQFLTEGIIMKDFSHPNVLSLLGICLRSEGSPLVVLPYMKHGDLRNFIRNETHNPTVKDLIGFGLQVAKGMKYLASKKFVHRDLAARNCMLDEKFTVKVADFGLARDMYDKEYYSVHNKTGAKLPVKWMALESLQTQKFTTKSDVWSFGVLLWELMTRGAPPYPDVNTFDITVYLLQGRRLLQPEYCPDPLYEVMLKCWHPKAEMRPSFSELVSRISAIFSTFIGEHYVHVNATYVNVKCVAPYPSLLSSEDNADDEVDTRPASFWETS

| SMILES | IC50 (RON (human)) | IC50 (MET (human)) |
| --- | --- | --- |
| Nc1ncc(-c2cnn(C3CCNCC3)c2)cc1-c1nc2c(C(F)(F)F)ccc(Cl)c2s1 [Example 282, 3-(7-Chloro-4-trifluoromethylbenzothiazol-2-yl)-5-(1-piperidin-4-yl-1H-pyrazol-4-yl)-pyridin-2-ylamine] | 100 to 1000 nM | 100 to 1000 nM |
| Nc1ncc(-c2cnn(C3CCNCC3)c2)cc1-c1nc2cc(F)ccc2s1 [Example 283, 3-(5-Fluorobenzothiazol-2-yl)-5-(1-piperidin-4-yl-1H-pyrazol-4-yl)-pyridin-2-ylamine] | ≤ 100 nM | ≤ 100 nM |
| N#Cc1cccc2sc(-c3cc(-c4cnn(C5CCNCC5)c4)cnc3N)nc12 [Example 284, 2-[2-Amino-5-(1-piperidin-4-yl-1H-pyrazol-4-yl)-pyridin-3-yl]-benzothiazole-4-carbonitrile] | 100 to 1000 nM | 100 to 1000 nM |
| Nc1ncc(-c2cnn(C3CCNCC3)c2)cc1-c1nc2c(OC(F)(F)F)cccc2s1 [Example 285, 5-(1-Piperidin-4-yl-1H-pyrazol-4-yl)-3-(4-trifluoromethoxybenzothiazol-2-yl)-pyridin-2-ylamine] | 1000 to 20000 nM | 100 to 1000 nM |
| Nc1ncc(-c2cnn(C3CCNCC3)c2)cc1-c1nc2c(C(F)(F)F)c(F)ccc2s1 [Example 286, 3-(5-Fluoro-4-trifluoromethylbenzothiazol-2-yl)-5-(1-piperidin-4-yl-1H-pyrazol-4-yl)-pyridin-2-ylamine] | 100 to 1000 nM | 100 to 1000 nM |
| Nc1ncc(-c2cnn(C3CCNCC3)c2)cc1-c1nc2c(Br)cc(OC(F)(F)F)cc2s1 [Example 287, 3-(4-Bromo-6-trifluoromethoxybenzothiazol-2-yl)-5-(1-piperidin-4-yl-1H-pyrazol-4-yl)-pyridin-2-ylamine] | 100 to 1000 nM | 1000 to 20000 nM |
| Nc1ncc(-c2cnn(CCC(=O)N3CCCCC3)c2)cc1-c1nc2ccccc2s1 [Example 288, 3-[4-(6-Amino-5-benzothiazol-2-ylpyridin-3-yl)-pyrazol-1-yl]-1-piperidin-1-ylpropan-1-one] | > 20000 nM | 100 to 1000 nM |
| Nc1ncc(-c2cnn(CCC(=O)N3CCC(O)C3)c2)cc1-c1nc2ccccc2s1 (stereo not shown) [Example 289, 3-[4-(6-Amino-5-benzothiazol-2-ylpyridin-3-yl)-pyrazol-1-yl]-1-(3-hydroxypyrrolidin-1-yl)-propan-1-one] | 1000 to 20000 nM | 100 to 1000 nM |
| Nc1ncc(-c2cnn(CCC(=O)N3CCC(O)CC3)c2)cc1-c1nc2ccccc2s1 [Example 290, 3-[4-(6-Amino-5-benzothiazol-2-ylpyridin-3-yl)-pyrazol-1-yl]-1-(4-hydroxypiperidin-1-yl)-propan-1-one] | 1000 to 20000 nM | 100 to 1000 nM |
| Nc1ncc(-c2cnn(CCC(=O)N3CCOCC3)c2)cc1-c1nc2ccccc2s1 [Example 291, 3-[4-(6-Amino-5-benzothiazol-2-ylpyridin-3-yl)-pyrazol-1-yl]-1-morpholin-4-ylpropan-1-one] | > 20000 nM | 1000 to 20000 nM |
| COCCNC(=O)CCn1cc(-c2cnc(N)c(-c3nc4ccccc4s3)c2)cn1 [Example 292, 3-[4-(6-Amino-5-benzothiazol-2-ylpyridin-3-yl)-pyrazol-1-yl]-N-(2-methoxyethyl)-propionamide] | > 20000 nM | 1000 to 20000 nM |
| Nc1ncc(-c2cnn(CCC(=O)NCCO)c2)cc1-c1nc2ccccc2s1 [Example 293, 3-[4-(6-Amino-5-benzothiazol-2-ylpyridin-3-yl)-pyrazol-1-yl]-N-(2-hydroxyethyl)-propionamide] | 1000 to 20000 nM | 100 to 1000 nM |
| COCCN(CCOC)C(=O)CCn1cc(-c2cnc(N)c(-c3nc4ccccc4s3)c2)cn1 [Example 294, 3-[4-(6-Amino-5-benzothiazol-2-ylpyridin-3-yl)-pyrazol-1-yl]-N,N-bis-(2-methoxyethyl)-propionamide] | 1000 to 20000 nM | 1000 to 20000 nM |
| CN(C)C(=O)CCn1cc(-c2cnc(N)c(-c3nc4ccccc4s3)c2)cn1 [Example 295, 3-[4-(6-Amino-5-benzothiazol-2-ylpyridin-3-yl)-pyrazol-1-yl]-N,N-dimethylpropionamide] | 1000 to 20000 nM | 100 to 1000 nM |
| CNC(=O)CCn1cc(-c2cnc(N)c(-c3nc4ccccc4s3)c2)cn1 [Example 296, 3-[4-(6-Amino-5-benzothiazol-2-ylpyridin-3-yl)-pyrazol-1-yl]-N-methylpropionamide] | 1000 to 20000 nM | 1000 to 20000 nM |
| NC(=O)CCn1cc(-c2cnc(N)c(-c3nc4ccccc4s3)c2)cn1 [Example 297, 3-[4-(6-Amino-5-benzothiazol-2-ylpyridin-3-yl)-pyrazol-1-yl]-propionamide] | 1000 to 20000 nM | 100 to 1000 nM |
| Nc1ncc(-c2cnn(C3CCNCC3)c2)cc1-c1nc2c(s1)CCCC2 [Example 298, 5-(1-Piperidin-4-yl-1H-pyrazol-4-yl)-3-(4,5,6,7-tetrahydro-benzothiazol-2-yl)-pyridin-2-ylamine] | ≤ 100 nM | ≤ 100 nM |
| Nc1ncc(-c2cnn(C3CCNCC3)c2)cc1-c1nc2c(s1)CCCCC2 [Example 299, 5-(1-Piperidin-4-yl-1H-pyrazol-4-yl)-3-(5,6,7,8-tetrahydro-4H-cycloheptathiazol-2-yl)-pyridin-2-ylamine] | 100 to 1000 nM | 100 to 1000 nM |
| Nc1ncc(-c2cnn(C3CCNCC3)c2)cc1N1CCc2ccccc2C1 [Example 300, 3-(3,4-Dihydro-1H-isoquinolin-2-yl)-5-(1-piperidin-4-yl-1H-pyrazol-4-yl)-pyridin-2-ylamine] | 1000 to 20000 nM | 100 to 1000 nM |
| Nc1ncc(-c2cnn(C3CCNCC3)c2)cc1N1CCc2c(F)cccc2C1 [Example 301, 3-(5-Fluoro-3,4-dihydro-1H-isoquinolin-2-yl)-5-(1-piperidin-4-yl-1H-pyrazol-4-yl)-pyridin-2-ylamine] | 1000 to 20000 nM | 1000 to 20000 nM |
| Nc1ncc(-c2cnn(C3CCNCC3)c2)cc1N1CCc2c(Cl)cccc2C1 [Example 302, 3-(5-Chloro-3,4-dihydro-1H-isoquinolin-2-yl)-5-(1-piperidin-4-yl-1H-pyrazol-4-yl)-pyridin-2-ylamine] | 100 to 1000 nM | 100 to 1000 nM |
| Nc1ncc(-c2cnn(C3CCNCC3)c2)cc1N1CCc2c(F)ccc(F)c2C1 [Example 303, 3-(5,8-Difluoro-3,4-dihydro-1H-isoquinolin-2-yl)-5-(1-piperidin-4-yl-1H-pyrazol-4-yl)-pyridin-2-ylamine] | 100 to 1000 nM | 100 to 1000 nM |
| Nc1ncc(-c2cnn(C3CCNCC3)c2)cc1-c1ccc2ccccc2c1 [Example 304, 3-Naphthalen-2-yl-5-(1-piperidin-4-yl-1H-pyrazol-4-yl)-pyridin-2-ylamine trihydrochloride] | 1000 to 20000 nM | 100 to 1000 nM |
